# From patent US6034246A, “2-arylbenzazole compounds” (Cancer Research Campaign Technology Limited, priority 1995, dated 2000)
# Columns and labels:
# OVCAR-3 = assay: in vitro activity against human ovarian cell line OVCAR-3 (Table 2); type: cell-based
# Description: (§1) Tables 1 to 4 at the end of the present description show in vitro test results obtained in various sets of experiments for the cytotoxic activity of several of the benzazole compounds concerned, including also for reference results for the compound CJM 126 and comparative results for compound DF129, when tested against a range of tumor cell lines which includes ovarian, lung and certain colon and renal cancer cells from the National Cancer Institute (USA) collection. As usual the results are expressed in terms of IS50 values (concentration or dosage required to reduce cell growth or proliferation by 50%) calculated from dose-effect curves plotted for cultures of the cells in question.
# In carrying out the in vitro studies, the cytotoxicity assays may be carried out by a method corresponding substantially to the following example: […]
# (§2) On day 7 the test was terminated by the addition of 100 μl saline containing 0.002% w/v propidium iodide (Sigma), 0.3% drawing ink (Staedtler "Marsmatic 745"--Trade Mark) and 0.5% Triton X-100. The plates were kept at 4° C. overnight before reading on an inverted microscope equipped with an automated scanning stage. Fluorescence intensity was measured in arbitrary units by a photomultiplier. […]
# MT-1 = assay: in vivo antitumor test, human breast carcinoma MT-1 xenotransplanted in nude mice; settings: MT-1, optimum dose 6.25 mg/Kg/inj i.p., qd 7, 14, 21
# Method: (§3) In one typical set of experiments, four human breast carcinomas xenotransplanted into female Ncr: nu/nu (Taconic, Germantown, U.S.A.) or male Bom: NMRI-nu/nu mice (Bomholtgaard, Ry, Denmark) were used for the evaluation of antitumor activity. Mice weighing 20-25 g at the start of experiments were held under sterile conditions at 24-26° C., 50% relative humidity and 12 hours light-dark rhythm in laminar flow shelves. The animals received autoclaved food and bedding; the drinking water was filtered and acidified (pH4.0).
# (§4) The following breast carcinoma cell lines were used: BO; MCF-7 (NCI, U.S.A.); MT-1 and MT-3. The tumors BO and MCF-7 are ER^+ models: the carcinomas MT-1 and MT-3 are ER^- ones. Tumors were transplanted subcutaneously (s.c.) as pieces (2×2 mm) into the left flank of 5-8 nude mice/experimental group. Drug treatment was initiated when the tumors reached a diameter of 4-5 mm. […] Tumor size was measured twice weekly with a caliper. Median tumor volume/group was related to the first treatment day and expressed as Relative Tumor Volume (RTV). For the estimation of toxicity, body weight was determined twice weekly and the mean percentage body weight change (BCC) was calculated. In one experiment blood was obtained from the retroorbital venous plexus of mice and blood cells were determined with a Coulter counter (Model T41).
# MT-3 = assay: in vivo antitumor test, human breast carcinoma MT-3 xenotransplanted in nude mice; settings: MT-3, optimum dose 12.5 mg/Kg/inj i.p., qd 7, 14, 21
# Method: as §3, §4
# MCF-7B = assay: in vitro inhibitory activity against human breast tumour cell line MCF-7B (Table 4); type: cell-based; settings: initial seeding density 2.5 × 10^2 cells/well
# Description: as §1
# In carrying out the in vitro studies, the cytotoxicity assays may be carried out by a method corresponding substantially to the following example:
# Cells were maintained in a continuous logarithmic culture in Dublecco's medium supplemented with 10% fetal calf serum and penicillin (100 IU/ml) and streptomycin ([…]). The cells were mildly trypsinized for passage and for use in assays. On day zero, 100 μl of trypsinized tumor cells (1×10^4 /ml) were plated in the wells of 96-well flat-bottom microtiter plates. The plates were incubated for 2 days at 37° C. and 5% CO2 in air to allow the cells to adhere and resume exponential growth prior to the addition of drugs.
# On day two 50 μl of the highest drug concentration was added to the wells of column 12 and from there serially diluted 3-fold to column 1 by serial transfer of 50 μl using an 8-channel micropipette. The final volume of column 1 was adjusted to 100 μl. No additions were made to the wells of rows A and B, which served as controls. […]
# as §2
# [1] = marked * significant versus control
Compound,IC50 (OVCAR-3) [nM],evaluation (MT-1),"RTV, relative tumor volume (T/C %) (MT-1; [1]) [%]",evaluation (MT-3),"RTV, relative tumor volume (T/C %) (MT-3; [1]) [%]",IC50 (MCF-7B) [nM]
"Nc1ccc(-c2nc3ccccc3s2)cc1I [DF129, 2-(4'-amino-3'-iodophenyl)benzothiazole]",600,,,,,
"Cc1cc(-c2nc3ccccc3s2)ccc1N [DF203, 2-(4'-amino-3'-methylphenyl)benzothiazole]",,++ (T/C = 21-35%),34,++ (T/C = 21-35%),22,10
